# Literature values in article PMC9826446 (Journal of Bone and Mineral Research, 2022).
# How the values were obtained:
# [1] = system: TNAP; details: not TNAP‐specific; ref [15], [16]
# [2] = system: ectopic calcification; details: animal models of PXE; ref [1], [7], [19]
# [3] = system: vascular calcification; details: patients with PXE, phase 2 trial; ref [27]
Structure (SMILES),inhibition on TNAP [1],other results
c1ccc([C@H]2CN3CCSC3=N2)cc1 [levamisole],only weak inhibition,
Cn1c(=O)c2[nH]cnc2n(C)c1=O [theophylline],only weak inhibition,
"COc1ccc(Cl)cc1S(=O)(=O)Nc1cncc(C(N)=O)c1 [SBI‐425, 5‐((5‐chloro‐2‐methoxyphenyl)sulfonamido)nicotinamide]",,anticalcification effects [2]: significant anticalcification effects
CC(O)(P(=O)(O)O)P(=O)(O)O [etidronate],,vascular calcification [3]: may reduce vascular calcification
